Laboratory results: US20120245177A1, “CRYSTALLINE LEVOFOLINIC ACID AND PROCESS FOR ITS PREPARATION” (GMT FINE CHEMICALS SA, priority 2011, published 2012)

Tests used:
[1] = easily converted into by-products if pH lower than 3.0 or temperature reaches 60° C. during pH lowering; per U.S. Pat. No. 6,441,168 B1; cited from earlier work
[2] = Long-term stability test (ICH conditions); type: physicochemical; conditions: long-term: 25±2° C., 60±5% relative humidity; for Assay of Levofolinic acid (% m/m): anhydrous and solvent free basis; for Appearance: specification white to pale yellow powder
Experimental: Two specimens of the product obtained in example 1 are subjected to accelerated stability tests and long-term stability tests, respectively; the tests are carried out according to ICH conditions. Long-term: 25±2° C., 60±5% relative humidity Analytical methods used for the stability studies tests are described in the calcium levofolinate monograph of the European Pharmacopoeia.

Nc1nc(=O)c2c([nH]1)NC[C@H](CNc1ccc(C(=O)N[C@@H](CCC(=O)O)C(=O)O)cc1)N2C=O [Example 1, (6S)—N(5)-formyl-5,6,7,8-tetrahydrofolic acid]
Stability [1]: unstable | Aspect of a 1.0% m/V solution in Tris solution corrected at pH = 8.1: Absorbance at 420 nm ([2]; 0 months): 0.06 | Content of Dextrofolinic acid (H) ([2]; 0 months): <0.10% | Optical rotation of a 1.0% m/V solution in Tris solution corrected at pH = 8.1 ([2]; 0 months): −12.8 ° | Related substances: 5-CHO-4H-Pteroic acid (E) (% area) ([2]; 0 months): 0.36 % area | Related substances: Any individual unknown impurities ([2]; 0 months): <0.10 % area | Related substances: Dihydrofolic acid (G) (% area) ([2]; 0 months): <0.10 % area | Related substances: Folic acid (C) (% area) ([2]; 0 months): <0.10 % area | Related substances: N^5-N^10-diformyl-THF (B) (% area) ([2]; 0 months): <0.10 % area | Related substances: N^10-CHO-dihydrofolic acid (F) (% area) ([2]; 0 months): <0.10 % area | Related substances: N^10-CHO-folic acid (D) (% m/m) ([2]; 0 months): <0.10 % m/m | Related substances: PABG (A) (% area) ([2]; 0 months): <0.10 % area | Sum of all relates substances (% area) ([2]; 0 months): 0.57 % area | Water content (%) ([2]; 0 months): 0.8% | Assay of Levofolinic acid (% m/m) ([2]; 0 months): 99.7 % m/m | Appearance ([2]; 0 months): Conform | Aspect of a 1.0% m/V solution in Tris solution corrected at pH = 8.1: Absorbance at 420 nm ([2]; 3 months): 0.05 | Related substances: 5-CHO-4H-Pteroic acid (E) (% area) ([2]; 3 months): 0.31 % area | Related substances: Any individual unknown impurities ([2]; 3 months): <0.10 % area | Related substances: Dihydrofolic acid (G) (% area) ([2]; 3 months): <0.10 % area | Related substances: Folic acid (C) (% area) ([2]; 3 months): <0.10 % area | Related substances: N^5-N^10-diformyl-THF (B) (% area) ([2]; 3 months): <0.10 % area | Related substances: N^10-CHO-dihydrofolic acid (F) (% area) ([2]; 3 months): 0.13 % area | Related substances: N^10-CHO-folic acid (D) (% m/m) ([2]; 3 months): <0.10 % m/m | Related substances: PABG (A) (% area) ([2]; 3 months): <0.10 % area | Sum of all relates substances (% area) ([2]; 3 months): 0.49 % area | Water content (%) ([2]; 3 months): 0.8% | Assay of Levofolinic acid (% m/m) ([2]; 3 months): 100.6 % m/m | Appearance ([2]; 3 months): Conform | Aspect of a 1.0% m/V solution in Tris solution corrected at pH = 8.1: Absorbance at 420 nm ([2]; 6 months): 0.06 | Content of Dextrofolinic acid (H) ([2]; 6 months): <0.10% | Related substances: 5-CHO-4H-Pteroic acid (E) (% area) ([2]; 6 months): 0.34 % area | Related substances: Any individual unknown impurities ([2]; 6 months): <0.10 % area | Related substances: Dihydrofolic acid (G) (% area) ([2]; 6 months): <0.10 % area | Related substances: Folic acid (C) (% area) ([2]; 6 months): <0.10 % area | Related substances: N^5-N^10-diformyl-THF (B) (% area) ([2]; 6 months): <0.10 % area | Related substances: N^10-CHO-dihydrofolic acid (F) (% area) ([2]; 6 months): 0.15 % area | Related substances: N^10-CHO-folic acid (D) (% m/m) ([2]; 6 months): <0.10 % m/m | Related substances: PABG (A) (% area) ([2]; 6 months): 0.10 % area | Sum of all relates substances (% area) ([2]; 6 months): 0.70 % area | Water content (%) ([2]; 6 months): 0.9% | Assay of Levofolinic acid (% m/m) ([2]; 6 months): 98.8 % m/m | Appearance ([2]; 6 months): Conform | Aspect of a 1.0% m/V solution in Tris solution corrected at pH = 8.1: Absorbance at 420 nm ([2]; 9 months): 0.04 | Related substances: 5-CHO-4H-Pteroic acid (E) (% area) ([2]; 9 months): 0.35 % area | Related substances: Any individual unknown impurities ([2]; 9 months): <0.10 % area | Related substances: Dihydrofolic acid (G) (% area) ([2]; 9 months): <0.10 % area | Related substances: Folic acid (C) (% area) ([2]; 9 months): <0.10 % area | Related substances: N^5-N^10-diformyl-THF (B) (% area) ([2]; 9 months): <0.10 % area | Related substances: N^10-CHO-dihydrofolic acid (F) (% area) ([2]; 9 months): 0.15 % area | Related substances: N^10-CHO-folic acid (D) (% m/m) ([2]; 9 months): <0.10 % m/m | Related substances: PABG (A) (% area) ([2]; 9 months): <0.10 % area | Sum of all relates substances (% area) ([2]; 9 months): 0.55 % area | Water content (%) ([2]; 9 months): 1.0% | Assay of Levofolinic acid (% m/m) ([2]; 9 months): 99.4 % m/m | Appearance ([2]; 9 months): Conform | Aspect of a 1.0% m/V solution in Tris solution corrected at pH = 8.1: Absorbance at 420 nm ([2]; 12 months): 0.06 | Related substances: 5-CHO-4H-Pteroic acid (E) (% area) ([2]; 12 months): 0.34 % area | Related substances: Any individual unknown impurities ([2]; 12 months): <0.10 % area | Related substances: Dihydrofolic acid (G) (% area) ([2]; 12 months): <0.10 % area | Related substances: Folic acid (C) (% area) ([2]; 12 months): <0.10 % area | Related substances: N^5-N^10-diformyl-THF (B) (% area) ([2]; 12 months): <0.10 % area | Related substances: N^10-CHO-dihydrofolic acid (F) (% area) ([2]; 12 months): 0.18 % area | Related substances: N^10-CHO-folic acid (D) (% m/m) ([2]; 12 months): <0.10 % m/m | Related substances: PABG (A) (% area) ([2]; 12 months): 0.11 % area | Sum of all relates substances (% area) ([2]; 12 months): 0.63 % area | Water content (%) ([2]; 12 months): 1.1% | Assay of Levofolinic acid (% m/m) ([2]; 12 months): 99.4 % m/m | Appearance ([2]; 12 months): Conform | Aspect of a 1.0% m/V solution in Tris solution corrected at pH = 8.1: Absorbance at 420 nm ([2]; 18 months): 0.05 | Optical rotation of a 1.0% m/V solution in Tris solution corrected at pH = 8.1 ([2]; 18 months): −13.1° | Related substances: 5-CHO-4H-Pteroic acid (E) (% area) ([2]; 18 months): 0.36 % area | Related substances: Any individual unknown impurities ([2]; 18 months): <0.10 % area | Related substances: Dihydrofolic acid (G) (% area) ([2]; 18 months): <0.10 % area | Related substances: Folic acid (C) (% area) ([2]; 18 months): <0.10 % area | Related substances: N^5-N^10-diformyl-THF (B) (% area) ([2]; 18 months): <0.10 % area | Related substances: N^10-CHO-dihydrofolic acid (F) (% area) ([2]; 18 months): 0.17 % area | Related substances: N^10-CHO-folic acid (D) (% m/m) ([2]; 18 months): <0.10 % m/m
